Experiments:
[1] = for surface tension liquid-gas: Ring tensiometer; for mass density / speed of sound / viscosity: 100 kPa, Liquid
[2] = xn = mol fraction of the nth substance listed; conditions: x2 = 0; for surface tension liquid-gas: Ring tensiometer; for mass density / speed of sound / viscosity: 100 kPa, Liquid

CCN1CCCC1=O [1-ethyl-2-pyrrolidinone]
[1]
Conditions	mass density [kg/m3]	speed of sound [m/s]	surface tension liquid-gas [mN/m]	viscosity [mPa·s]
293.15 K	997.91	1513.2	36.5	2.132
303.15 K	989.34	1475	35.2	1.777
313.15 K	980.76	1437.6	34.2	1.515
323.15 K	972.16	1400.6	–	1.31

NCCO [2-aminoethan-1-ol]
[1]
Conditions	mass density [kg/m3]	speed of sound [m/s]	surface tension liquid-gas [mN/m]	viscosity [mPa·s]
293.15 K	1015.93	1734.4	49.7	24.23
303.15 K	1008.02	1702.1	47.8	14.99
313.15 K	1000.06	1670.1	47.1	9.776
323.15 K	992.05	1637.2	–	6.765

NCCO [2-aminoethan-1-ol] + CCN1CCCC1=O
[2]
Conditions	mass density [kg/m3]	speed of sound [m/s]	surface tension liquid-gas [mN/m]	viscosity [mPa·s]
293.15 K	1015.93	1734.4	49.7	24.23
303.15 K	1008.02	1702.1	47.8	14.99
313.15 K	1000.06	1670.1	47.1	9.776
323.15 K	992.05	1637.2	–	6.765

OCCNCCO [diethanolamine]
[1]
Conditions	mass density [kg/m3]	speed of sound [m/s]	surface tension liquid-gas [mN/m]	viscosity [mPa·s]
293.15 K	1096.45	1739.2	47.4	892.04
303.15 K	1090.02	1711.3	46.6	394.2
313.15 K	1083.51	1685.9	46	191.32
323.15 K	1077.05	1661.1	–	102.72

OCCNCCO [diethanolamine] + CCN1CCCC1=O
[2]
Conditions	mass density [kg/m3]	speed of sound [m/s]	surface tension liquid-gas [mN/m]	viscosity [mPa·s]
293.15 K	1096.45	1739.2	47.4	892.04
303.15 K	1090.02	1711.3	46.6	394.2
313.15 K	1083.51	1685.9	46	191.32
323.15 K	1077.05	1661.1	–	102.72

OCCN(CCO)CCO [triethanolamine]
[1]
Conditions	mass density [kg/m3]	speed of sound [m/s]	surface tension liquid-gas [mN/m]	viscosity [mPa·s]
293.15 K	1123.51	1626.9	46.3	951.79
303.15 K	1118	1605.3	45.6	413.68
313.15 K	1112.34	1587.8	44.8	204.57
323.15 K	1106.7	1571.9	–	111.34

OCCN(CCO)CCO [triethanolamine] + CCN1CCCC1=O
[2]
Conditions	mass density [kg/m3]	speed of sound [m/s]	surface tension liquid-gas [mN/m]	viscosity [mPa·s]
293.15 K	1123.51	1626.9	46.3	951.79
303.15 K	1118	1605.3	45.6	413.68
313.15 K	1112.34	1587.8	44.8	204.57
323.15 K	1106.7	1571.9	–	111.34
